Test results: ChEMBL document CHEMBL1125773, “Analogues of oxybutynin. Synthesis and antimuscarinic and bladder activity of some substituted 7-amino-1-hydroxy-5-heptyn-2-ones and related compounds” (1991)

Organism: Cavia porcellus
Experiment: Duration of action at which functional detrusor muscle contraction strength was measured using guinea pig model of cystometrogram
Set-up: species or system Muscle tissue

`CCN(C)CC#CCCC(=O)C(O)(c1ccccc1)C1CC1` (configuration not stated) and `CCN(C)CC#CCCC(=O)C(O)(c1ccccc1)C1CCC1` (configuration not stated) are within 1.5-fold of each other in Duration: 127 min for the first, 168 min for the second.

`CNCC#CCCC(=O)C(O)(c1ccccc1)C1CCCCC1` (configuration not stated) and `CC(C)NCC#CCCC(=O)C(O)(c1ccccc1)C1CCCCC1` (configuration not stated) are within 1.5-fold of each other in Duration: 48 min for the first, 35 min for the second.

Compared with `CN(C)CC#CCCC(=O)[C@@](O)(c1ccccc1)C1CCCCC1`, `CN(C)CC#CCCC(=O)[C@](O)(c1ccccc1)C1CCCCC1` is 2.9-fold higher in Duration: 88 min for the first, 257 min for the second.

`CN(C)CC#CCCC(=O)C(O)(c1ccccc1)C1CCCC1` (configuration not stated) and `CN(C)CC#CCCC(=O)C(O)(c1ccccc1)C1CCC1` (single isomer, unassigned; (+)) are within 1.5-fold of each other in Duration: 98 min for the first, 88 min for the second.

First: CN(C)CC#CCCC(=O)C(O)(c1ccccc1)C1CC2CCC1C2 (configuration not stated)
Second: CN(C)CC#CCCC(=O)C(O)(c1ccccc1)C1CC1 (configuration not stated)
The Duration of the first is 2.7-fold higher: 242 min for the first, 89 min for the second.

Going from `CCN(C)CC#CCCC(=O)C(O)(c1ccccc1)c1ccccc1` to `CCN(C)CC#CCCC(=O)C(O)(c1ccccc1)C1CCCCC1` (configuration not stated), the Duration falls from 69 min to 39 min (1.8-fold).

Compared with `CN(C)CCCCCC(=O)C(O)(c1ccccc1)C1CCCCC1` (configuration not stated), `CCN(CC)CC#CCCC(=O)C(O)(c1ccccc1)C1CCCCC1` (configuration not stated) is 9.8-fold lower in Duration: 294 min for the first, 30 min for the second.

First: CCCCN(CC#CCCC(=O)C(O)(c1ccccc1)C1CCCCC1)CCC (configuration not stated)
Second: CCN(CC#CCCC(=O)C(O)(c1ccccc1)C1CCCCC1)C(C)C (configuration not stated)
The Duration of the first is 3.2-fold higher: 74 min for the first, 23 min for the second.

`CCN(CC)CC#CCCC(=O)C(O)(c1ccccc1)C1CC1` (configuration not stated) and `CN(C)CC#CCCC(=O)C(O)(c1ccccc1)C1CCC1` (stereo in doubt; 14b) are within 1.5-fold of each other in Duration: 80 min for the first, 116 min for the second.

`CN(C)CC#CCCC(=O)C(O)(c1ccccc1)C1(C)CC1` (configuration not stated) and `CCNCC#CCCC(=O)C(O)(c1ccccc1)C1CC1` (configuration not stated) are within 1.5-fold of each other in Duration: 80 min for the first, 103 min for the second.

`CC(C)N(C)CC#CCCC(=O)C(O)(c1ccccc1)C1CCCCC1` (configuration not stated) and `CC(CC#CCN(C)C)C(=O)C(O)(c1ccccc1)C1CCCCC1` (configuration not stated) are within 1.5-fold of each other in Duration: 41 min for the first, 39 min for the second.

`CCNCC#CCCC(=O)C(O)(c1ccc(F)cc1)C1CCCCC1` (configuration not stated) and `CN(C)CC#CCCC(=O)C(O)(c1ccc(F)cc1)C1CCCCC1` (configuration not stated) are within 1.5-fold of each other in Duration: 116 min for the first, 104 min for the second.

What follows are compounds tested on Cavia porcellus (assay: Effect on in vivo functional detrusor muscle contraction strength using guinea pig model of cystometrogram).
Set-up: species or system Muscle tissue

Going from `CCN(C)CC#CCCC(=O)C(O)(c1ccccc1)C1CC1` (configuration not stated) to `CCN(C)CC#CCCC(=O)C(O)(c1ccccc1)C1CCC1` (configuration not stated), the Potency falls from 1.3 to 0.86.

Compared with `CNCC#CCCC(=O)C(O)(c1ccccc1)C1CCCCC1` (configuration not stated), `CC(C)NCC#CCCC(=O)C(O)(c1ccccc1)C1CCCCC1` (configuration not stated) is higher in Potency: 0.48 for the first, 2.1 for the second.

Compared with `CN(C)CC#CCCC(=O)[C@@](O)(c1ccccc1)C1CCCCC1`, `CN(C)CC#CCCC(=O)[C@](O)(c1ccccc1)C1CCCCC1` is lower in Potency: 3.6 for the first, 0.19 for the second.

First: CN(C)CC#CCCC(=O)C(O)(c1ccccc1)C1CCCC1 (configuration not stated)
Second: CN(C)CC#CCCC(=O)C(O)(c1ccccc1)C1CCC1 (single isomer, unassigned; (+))
The Potency of the first is higher: 0.33 for the first, 0.06 for the second.

First: CN(C)CC#CCCC(=O)C(O)(c1ccccc1)C1CC2CCC1C2 (configuration not stated)
Second: CN(C)CC#CCCC(=O)C(O)(c1ccccc1)C1CC1 (configuration not stated)
The Potency of the first is higher: 0.9 for the first, 0.48 for the second.

Going from `CCN(C)CC#CCCC(=O)C(O)(c1ccccc1)c1ccccc1` to `CCN(C)CC#CCCC(=O)C(O)(c1ccccc1)C1CCCCC1` (configuration not stated), the Potency falls from 0.9 to 0.45.

Compared with `CN(C)CCCCCC(=O)C(O)(c1ccccc1)C1CCCCC1` (configuration not stated), `CCN(CC)CC#CCCC(=O)C(O)(c1ccccc1)C1CCCCC1` (configuration not stated) is higher in Potency: 1.27 for the first, 2.8 for the second.

Compared with `CCCCN(CC#CCCC(=O)C(O)(c1ccccc1)C1CCCCC1)CCC` (configuration not stated), `CCN(CC#CCCC(=O)C(O)(c1ccccc1)C1CCCCC1)C(C)C` (configuration not stated) is higher in Potency: 2.6 for the first, 3.3 for the second.

Compared with `CCN(CC)CC#CCCC(=O)C(O)(c1ccccc1)C1CC1` (configuration not stated), `CN(C)CC#CCCC(=O)C(O)(c1ccccc1)C1CCC1` (stereo in doubt; 14b) is lower in Potency: 0.98 for the first, 0.12 for the second.

Compared with `CN(C)CC#CCCC(=O)C(O)(c1ccccc1)C1(C)CC1` (configuration not stated), `CCNCC#CCCC(=O)C(O)(c1ccccc1)C1CC1` (configuration not stated) is higher in Potency: 0.28 for the first, 1.1 for the second.

First: CC(C)N(C)CC#CCCC(=O)C(O)(c1ccccc1)C1CCCCC1 (configuration not stated)
Second: CC(CC#CCN(C)C)C(=O)C(O)(c1ccccc1)C1CCCCC1 (configuration not stated)
The Potency of the first is higher: 4.2 for the first, 2.1 for the second.

Going from `CCNCC#CCCC(=O)C(O)(c1ccc(F)cc1)C1CCCCC1` (configuration not stated) to `CN(C)CC#CCCC(=O)C(O)(c1ccc(F)cc1)C1CCCCC1` (configuration not stated), the Potency falls from 1.8 to 0.9.

Organism: Cavia porcellus
Experiment: Antimuscarinic effect determined by comparing ability to inhibit carbachol-induced guinea pig detrusor muscle contractions
Assay type: functional

Compared with `CCN(C)CC#CCCC(=O)C(O)(c1ccccc1)C1CC1` (configuration not stated), `CCN(C)CC#CCCC(=O)C(O)(c1ccccc1)C1CCC1` (configuration not stated) is 32-fold lower in Kb: 241 nM for the first, 7.5 nM for the second.

First: CNCC#CCCC(=O)C(O)(c1ccccc1)C1CCCCC1 (configuration not stated)
Second: CC(C)NCC#CCCC(=O)C(O)(c1ccccc1)C1CCCCC1 (configuration not stated)
The Kb of the first is 4.1-fold lower: 71.2 nM for the first, 292 nM for the second.

First: CN(C)CC#CCCC(=O)[C@@](O)(c1ccccc1)C1CCCCC1
Second: CN(C)CC#CCCC(=O)[C@](O)(c1ccccc1)C1CCCCC1
The Kb of the first is 12-fold higher: 209 nM for the first, 17 nM for the second.

Going from `CN(C)CC#CCCC(=O)C(O)(c1ccccc1)C1CCCC1` (configuration not stated) to `CN(C)CC#CCCC(=O)C(O)(c1ccccc1)C1CCC1` (single isomer, unassigned; (+)), the Kb rises from 2 nM to 6.2 nM (3.1-fold).

Compared with `CN(C)CC#CCCC(=O)C(O)(c1ccccc1)C1CC2CCC1C2` (configuration not stated), `CN(C)CC#CCCC(=O)C(O)(c1ccccc1)C1CC1` (configuration not stated) is 2.6-fold lower in Kb: 90 nM for the first, 35 nM for the second.

Compared with `CCN(C)CC#CCCC(=O)C(O)(c1ccccc1)c1ccccc1`, `CCN(C)CC#CCCC(=O)C(O)(c1ccccc1)C1CCCCC1` (configuration not stated) is 2-fold lower in Kb: 75.4 nM for the first, 37 nM for the second.

First: CN(C)CCCCCC(=O)C(O)(c1ccccc1)C1CCCCC1 (configuration not stated)
Second: CCN(CC)CC#CCCC(=O)C(O)(c1ccccc1)C1CCCCC1 (configuration not stated)
The Kb of the first is 4.1-fold lower: 43 nM for the first, 175 nM for the second.

Compared with `CCCCN(CC#CCCC(=O)C(O)(c1ccccc1)C1CCCCC1)CCC` (configuration not stated), `CCN(CC#CCCC(=O)C(O)(c1ccccc1)C1CCCCC1)C(C)C` (configuration not stated) is 1.5-fold higher in Kb: 142 nM for the first, 217 nM for the second.

First: CCN(CC)CC#CCCC(=O)C(O)(c1ccccc1)C1CC1 (configuration not stated)
Second: CN(C)CC#CCCC(=O)C(O)(c1ccccc1)C1CCC1 (stereo in doubt; 14b)
The Kb of the first is 12-fold higher: 58 nM for the first, 4.9 nM for the second.

First: CN(C)CC#CCCC(=O)C(O)(c1ccccc1)C1(C)CC1 (configuration not stated)
Second: CCNCC#CCCC(=O)C(O)(c1ccccc1)C1CC1 (configuration not stated)
The Kb of the first is 9.3-fold lower: 24 nM for the first, 224 nM for the second.

Compared with `CC(C)N(C)CC#CCCC(=O)C(O)(c1ccccc1)C1CCCCC1` (configuration not stated), `CC(CC#CCN(C)C)C(=O)C(O)(c1ccccc1)C1CCCCC1` (configuration not stated) is 1.6-fold lower in Kb: 267 nM for the first, 163 nM for the second.

Going from `CCNCC#CCCC(=O)C(O)(c1ccc(F)cc1)C1CCCCC1` (configuration not stated) to `CN(C)CC#CCCC(=O)C(O)(c1ccc(F)cc1)C1CCCCC1` (configuration not stated), the Kb falls from 504 nM to 67.7 nM (7.4-fold).
